# Assay results published in patent US8642799B2, “Cysteine protease inhibitors for the treatment of parasitic diseases” (Merck Canada Inc., priority 2007, dated 2014).
# Target: cruzipain (Trypanosoma cruzi, UniProt P25779)
# Test: biochemical
# Details: 50 pM cruzipain, pH 5.5, 15 minutes preincubation, 2 μM Z-Phe-Arg-AMC substrate
# Experimental: The assay solutions were mixed and incubated for 15 minutes at room temperature prior to the addition of 2 μM of Z-Phe-Arg-AMC substrate. […] Percent of inhibition were calculated by fitting experimental values to standard mathematical model for dose response curve.
# cruzipain, sequence (P25779 123-467): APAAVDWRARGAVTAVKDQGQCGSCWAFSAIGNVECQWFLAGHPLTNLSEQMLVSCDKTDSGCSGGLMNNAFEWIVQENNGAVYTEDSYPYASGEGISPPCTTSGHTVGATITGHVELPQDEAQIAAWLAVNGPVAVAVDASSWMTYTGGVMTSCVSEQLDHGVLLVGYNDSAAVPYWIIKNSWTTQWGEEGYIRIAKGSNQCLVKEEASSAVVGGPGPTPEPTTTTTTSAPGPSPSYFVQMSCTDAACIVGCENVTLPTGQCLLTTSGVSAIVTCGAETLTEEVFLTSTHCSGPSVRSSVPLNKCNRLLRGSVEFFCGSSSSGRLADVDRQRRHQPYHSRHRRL
row,SMILES,IC50 [nM]
1,"CS(=O)(=O)c1ccc(-c2ccc([C@H](N[C@H](C(=O)N[C@H](C#N)Cc3ccc(C#N)cc3F)C3CC3)C(F)(F)F)cc2)cc1 [Example 68, (S)-N-[(S)-Cyano-(4-cyano-2-fluoro-benzyl)-methyl]-2-cyclopropyl-2-[(S)-2,2,2-trifluoro-1-(4′-methanesulfonyl-biphenyl-4-yl)-ethylamino]-acetamide]",4.4
2,"CC(C)[C@H](N[C@@H](c1ccc(-c2ccc([C@@H](O)C(F)F)cc2)cc1)C(F)(F)F)C(=O)N[C@H](C#N)Cc1ccccc1 [Example 50, (S)-N-((S)-Benzyl-cyano-methyl)-2-{(S)-1-[4′-((R)-2,2-difluoro-1-hydroxy-ethyl)-biphenyl-4-yl]-2,2,2-trifluoro-ethylamino}-3-methyl-butyramide]",3.2
3,"CC(C)(F)C[C@H](N[C@@H](c1ccc(-c2ccc(C3(C(=O)NCCO)CC3)cc2)cc1)C(F)(F)F)C(=O)N[C@H](C#N)Cc1ccccc1 [Example 52, 1-[4′-((S)-1-{(S)-1-[((S)-Benzyl-cyano-methyl)-carbamoyl]-3-fluoro-3-methyl-butylamino}-2,2,2-trifluoro-ethyl)-biphenyl-4-yl]-cyclopropanecarboxylic acid (2-hydroxy-ethyl)-amide]",2.8
4,"CC(C)(F)C[C@H](N[C@@H](c1ccc(-c2ccc([C@@H](O)C(F)F)cc2)cc1)C(F)(F)F)C(=O)N[C@H](C#N)Cc1ccc(C#N)cc1F [Example 32, (S)-2-{(S)-1-[4′-((R)-2,2-Difluoro-1-hydroxy-ethyl)-biphenyl-4-yl]-2,2,2-trifluoro-ethylamino}-4-fluoro-4-methyl-pentanoic acid [(S)-cyano-(4-cyano-2-fluoro-benzyl)-methyl]-amide]",0.9
5,"CC(C)(F)C[C@H](N[C@@H](c1ccc(-c2ccc(C3(C(=O)N4CCOCC4)CC3)cc2)cc1)C(F)(F)F)C(=O)N[C@H](C#N)Cc1ccc(C#N)cc1F [Example 43, (S)-4-Fluoro-4-methyl-2-((S)-2,2,2-trifluoro-1-{4′-[1-(morpholine-4-carbonyl)-cyclopropyl]-biphenyl-4-yl}-ethylamino)-pentanoic acid [(S)-1-cyano-2-(4-cyano-2-fluoro-phenyl)-ethyl]-amide]",0.35
6,"CC(C)(F)C[C@H](N[C@@H](c1ccc(Br)cc1)C(F)(F)F)C(=O)N[C@H](C#N)Cc1ccc(C#N)cc1F [Example 44, (S)-2-[(S)-1-(4-Bromo-phenyl)-2,2,2-trifluoro-ethylamino]-4-fluoro-4-methyl-pentanoic acid [(S)-1-cyano-2-(4-cyano-2-fluoro-phenyl)-ethyl]-amide]",9.4
7,"CC(C)(F)C[C@H](N[C@@H](c1ccc(-c2ccc(S(C)(=O)=O)cc2)cc1)C(F)(F)F)C(=O)N[C@H](C#N)Cc1c(F)cc(C#N)cc1F [Example 67, (S)-4-Fluoro-4-methyl-2-[(S)-2,2,2-trifluoro-1-(4′-methanesulfonyl-biphenyl-4-yl)-ethylamino]-pentanoic acid [(S)-cyano-(4-cyano-2,6-difluoro-benzyl)-methyl]-amide]",0.9
8,"CC(C)[C@H](N[C@@H](c1ccc(-c2ccc([C@@H](O)C(F)F)cc2)cc1)C(F)(F)F)C(=O)N[C@H](C#N)Cc1ccc(C(F)(F)F)cc1F [Example 61, (S)-N-[(S)-Cyano-(2-fluoro-4-trifluoromethyl-benzyl)-methyl]-2-{(S)-1-[4′-((R)-2,2-difluoro-1-hydroxy-ethyl)-biphenyl-4-yl]-2,2,2-trifluoro-ethylamino}-3-methyl-butyramide]",1.5
9,"CC(C)(F)C[C@H](N[C@@H](c1ccc(-c2ccc(C3(c4ncon4)CC3)cc2)cc1)C(F)(F)F)C(=O)N[C@H](C#N)Cc1ccccc1 [Example 29, (S)-4-Fluoro-4-methyl-2-{(S)-2,2,2-trifluoro-1-[4′-(1-[1,2,4]oxadiazol-3-yl-cyclopropyl)-biphenyl-4-yl]-ethylamino}-pentanoic acid ((S)-1-cyano-2-phenyl-ethyl)-amide]",20
10,"CC(C)[C@H](N[C@@H](c1ccc(-c2ccncc2)cc1)C(F)(F)F)C(=O)N[C@H](C#N)Cc1ccccc1 [Example 49, (S)-N-((S)-Benzyl-cyano-methyl)-3-methyl-2-[(S)-2,2,2-trifluoro-1-(4-pyridin-4-yl-phenyl)-ethylamino]-butyramide]",5.6

# Further compounds by falling IC50, results first:
row,IC50 [nM],SMILES
1,39,"CC(C)(F)C[C@H](N[C@@H](c1ccc(-c2ccc(S(C)(=O)=O)cc2)cc1)C(F)(F)F)C(=O)N[C@H](C#N)Cc1ccc[n+]([O-])c1 [Example 74, (S)-4-Fluoro-4-methyl-2-[(S)-2,2,2-trifluoro-1-(4′-methanesulfonyl-biphenyl-4-yl)-ethylamino]-pentanoic acid [(S)-cyano-(1-oxy-pyridin-3-ylmethyl)-methyl]-amide]"
2,7,"CC(C)(F)C[C@H](N[C@@H](c1ccc(-c2ccc(S(C)(=O)=O)cc2)cc1)C(F)(F)F)C(=O)N[C@H](C#N)Cc1ccc(-c2cccnc2)cc1 [Example 14, (S)-4-Fluoro-4-methyl-2-[(S)-2,2,2-trifluoro-1-(4′-methanesulfonyl-biphenyl-4-yl)-ethylamino]-pentanoic acid [(S)-1-cyano-2-(4-pyridin-3-yl-phenyl)-ethyl]-amide]"
3,4.3,"C=CCNC(=O)C1(c2ccc(-c3ccc([C@H](N[C@@H](CC(C)(C)F)C(=O)N[C@H](C#N)Cc4ccccc4)C(F)(F)F)cc3)cc2)CC1 [Example 57, 1-[4′-((S)-1-{(S)-1-[((S)-Benzyl-cyano-methyl)-carbamoyl]-3-fluoro-3-methyl-butylamino}-2,2,2-trifluoro-ethyl)-biphenyl-4-yl]-cyclopropanecarboxylic acid allylamide]"
4,0.1,"CC(C)[C@H](N[C@@H](c1ccc(-c2ccc(N3CCNCC3)cc2)cc1)C(F)(F)F)C(=O)N[C@H](C#N)Cc1ccccc1 [Example 47, 4-[4′-((S)-1-{(S)-1-[((S)-Benzyl-cyano-methyl)-carbamoyl]-2-methyl-propylamino}-2,2,2-trifluoro-ethyl)-biphenyl-4-yl]-piperazin-1-ium; chloride]"
